Usually EC50 stands for the concentration at which the effect is half-maximal. A word on the AC50: it is the concentration giving half of the maximal activity seen.

Assay [1] addresses T1, Heat shock factor protein 1 (Mus musculus, UniProt P38532).
T1 sequence (P38532 whole entry): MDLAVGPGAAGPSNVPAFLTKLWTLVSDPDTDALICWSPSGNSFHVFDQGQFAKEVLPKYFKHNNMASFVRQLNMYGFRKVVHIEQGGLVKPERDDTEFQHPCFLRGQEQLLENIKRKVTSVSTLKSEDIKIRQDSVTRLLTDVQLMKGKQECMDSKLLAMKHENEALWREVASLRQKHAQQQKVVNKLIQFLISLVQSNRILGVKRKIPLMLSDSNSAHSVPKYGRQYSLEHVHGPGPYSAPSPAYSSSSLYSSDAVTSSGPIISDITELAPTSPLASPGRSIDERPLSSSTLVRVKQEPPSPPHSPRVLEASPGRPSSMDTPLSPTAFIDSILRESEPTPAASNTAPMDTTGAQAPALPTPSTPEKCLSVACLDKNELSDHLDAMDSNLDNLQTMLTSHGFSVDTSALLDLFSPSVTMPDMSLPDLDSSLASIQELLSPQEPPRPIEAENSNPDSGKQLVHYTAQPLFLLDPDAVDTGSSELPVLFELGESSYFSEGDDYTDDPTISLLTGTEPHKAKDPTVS
In words: enhancement of HSF1-driven luciferase signal – cell-based, NIH3T3, luminescence, dose retest, confirmation (AID 435004).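 Also: stress induced by proteasome inhibitor MG132 added 30 min after compound; luciferase reporter driven by HSF1 response element in NIH3T3 cells; actives raise luminescence as potentiators of the MG132 stress response.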 The class given is functional.

The nature of assay [2]: Trypanosoma cruzi growth suppression in host cells – NIH3T3 host cells, beta-gal luminescence, confirmation (AID 2044).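 Also: intracellular parasites grown in NIH/3T3 mouse fibroblasts as host cells; luminescent beta-galactosidase reporter signal from transgenic T. cruzi replicating inside host cells; inhibitors lower the luminescence signal.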 The format is functional, cell-based.
The nature of assay [3]: NIH3T3 cell viability loss – ATP luminescence, mouse fibroblasts, counter-screen, dose response (AID 2010).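 Also: cells exposed to compound for about 90 hours before reading.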 The class given is functional, cell-based. For orientation: A counterscreen serves to expose hits that act by an unwanted route or on another target.
Assay [4] concerns the target T2, Cytochrome P450 1A2 (Homo sapiens, UniProt P05177).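 Also: PubChem cytochrome P450 panel assay, CYP1A2 panel member.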
T2 sequence (P05177 whole entry): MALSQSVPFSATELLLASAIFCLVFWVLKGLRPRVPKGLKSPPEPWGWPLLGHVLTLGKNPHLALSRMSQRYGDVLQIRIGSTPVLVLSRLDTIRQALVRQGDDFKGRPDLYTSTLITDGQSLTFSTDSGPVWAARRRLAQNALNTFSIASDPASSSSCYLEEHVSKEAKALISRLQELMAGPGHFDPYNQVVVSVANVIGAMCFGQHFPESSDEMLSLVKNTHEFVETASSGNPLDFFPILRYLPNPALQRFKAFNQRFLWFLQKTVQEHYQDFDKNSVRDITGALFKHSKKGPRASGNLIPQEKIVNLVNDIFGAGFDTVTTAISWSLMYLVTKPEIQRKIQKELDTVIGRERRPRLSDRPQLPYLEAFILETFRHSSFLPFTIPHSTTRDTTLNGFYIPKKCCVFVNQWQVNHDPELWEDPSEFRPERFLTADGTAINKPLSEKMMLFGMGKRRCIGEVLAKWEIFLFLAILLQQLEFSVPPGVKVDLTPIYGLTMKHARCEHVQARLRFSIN

The target of assay [5] is Cytochrome P450 3A4 (Homo sapiens, UniProt P08684).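 Also: CYP3A4 tested as one member of a cytochrome P450 panel screen.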
The subject of assay [6] is Streptococcus sp. 'group A'. In words: Streptococcus pyogenes SK(-)GAS viability under kanamycin – luminescence, BacTiterGlo, confirmation, counter-screen for streptokinase expression inhibitor project, dose response (AID 1900). The class given is functional, organism-based.
Assay [7] relates to Streptococcus. In words: GAS UMAA2166 growth inhibition – luminescence, BacTiterGlo, counter-screen for streptokinase expression inhibitor project, dose response (AID 1915).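 Also: potency for reduction of bacterial viability or growth.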 The format is functional, organism-based.

Several values for one entry are separate records, joined by “and”; a condition that tells them apart may be missing. Equal values may be shown once. Activity calls are given as the source filed them. Rule as the data show it, for most assays here: actives have a measured EC50 and inactives only a lower limit.

Sequence of Cytochrome P450 3A4 (P08684 whole entry): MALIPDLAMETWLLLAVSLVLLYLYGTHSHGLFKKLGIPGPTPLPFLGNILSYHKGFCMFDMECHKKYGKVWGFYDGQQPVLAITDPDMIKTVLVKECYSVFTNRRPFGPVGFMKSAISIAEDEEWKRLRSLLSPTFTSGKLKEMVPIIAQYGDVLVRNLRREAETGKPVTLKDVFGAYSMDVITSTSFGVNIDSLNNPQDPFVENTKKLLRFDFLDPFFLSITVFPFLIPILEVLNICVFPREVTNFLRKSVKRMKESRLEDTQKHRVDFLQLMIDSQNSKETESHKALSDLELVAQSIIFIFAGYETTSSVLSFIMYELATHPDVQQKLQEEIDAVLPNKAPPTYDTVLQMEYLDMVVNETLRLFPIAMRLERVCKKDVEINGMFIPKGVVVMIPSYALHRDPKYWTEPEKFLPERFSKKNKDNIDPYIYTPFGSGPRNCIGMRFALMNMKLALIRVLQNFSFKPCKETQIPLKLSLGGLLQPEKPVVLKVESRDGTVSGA

In the case of `CC(=O)Nc1cccc(-n2nnc(SCC(=O)Nc3ccc(F)c(Cl)c3)n2)c1`, the EC50 in assay [1] is > 260 µM (inactive).
Consider `CC(C)(C)c1cc(NC(=O)CCSc2nnc3ccccn23)cc(C(C)(C)C)c1`, for which the EC50 in assay [1] was > 260 µM (inactive).
Consider `CCc1cccc(CC)c1NC(=O)COC(=O)CC1c2ccccc2CCN1S(=O)(=O)c1ccc(F)cc1` (stereo unspecified), for which, in assay [1], the EC50 was > 260 µM (inactive).
For `CN1CCN(c2ccc(NC(=O)c3ccc4c(c3)nc(O)n4Cc3ccc(F)cc3)cc2)CC1`, the results for the EC50 in assay [2] and in assay [3] were 0.955 µM (active) and > 30 µM (not active), respectively.
The corresponding values for `CC(c1nnnn1C(C)(C)C)N(Cc1cccnc1)Cc1ccccc1Cl` (stereo unspecified) are 0.496 µM (active) and > 60 µM (not active).
Consider `O=C(Nc1ccccc1)/C(=C\c1ccncc1)NC(=O)c1ccccc1`, for which the AC50 in assay [4] is 15.8 µM (inconclusive); in assay [5], 0.794 µM (inconclusive).
For the compound `CN(C)CCCCNCCCNC(=O)/C=N\O`, in assay [1], the EC50 was > 260 µM (inactive).
For `CCS(=O)(=O)C(=C1NCCO1)S(=O)(=O)CC`, the EC50 in assay [1] was > 260 µM (inactive).
The same measure, in the same setting: in the case of `O=C(CSc1nccn(-c2ccc(F)c(F)c2)c1=O)NC1CCCC1` it was > 260 µM (inactive); in that of `CCC(Sc1nc2cc3c(cc2c(=O)n1Cc1ccco1)OCO3)C(=O)NCCOC` (stereo unspecified), > 260 µM (inactive).
For `COc1ccc(C(F)(F)F)cc1N/C=C\c1nnnn1-c1ccccc1`, the AC50 was 1.41 µM (inconclusive) in assay [4] and 31.6 µM (inconclusive) in assay [5].
Consider `CCOc1cc(/C=N/O)cc(Cl)c1OC`, for which the AC50 in assay [5] is 31.6 µM (inconclusive).
The same measure, in the same setting: the same measure for `COc1cc2c(cc1OC)C(C(=O)N1CCOCC1)C(c1cccs1)N(C)C2=O` (stereo unspecified): 25.1 µM (inconclusive).
Consider `Cc1c(C(=O)NCc2ccc3c(c2)OCO3)oc2ccc(S(=O)(=O)N3CCC(C)CC3)cc12`, for which the results for the EC50 in assay [2] and in assay [3] were 1.04 µM (active) and 50.9 µM (active), respectively.
`CO[C@@H]1CC=C2CCN3CCC4=C(CC(=O)OC4)[C@]23C1`: in assay [5], the AC50 was 39.8 µM (inconclusive).
In the case of `COc1ccc(S(=O)(=O)N2CCOC23CCN(S(=O)(=O)c2ccc([N+](=O)[O-])cc2)CC3)cc1`, the EC50 in assay [2] is 2.03 µM (active); in assay [3], > 30 µM (not active).
Take `CC(=O)Nc1sc2c(c1CN1CCN(C)CC1)CCCC2`: the AC50 in assay [4] was 17.8 µM (inconclusive).
The same measure, in the same setting: the same measure for `CN(C)c1ncc2nc(-c3ccc(F)cc3)c(=O)n(CCc3ccccc3)c2n1`: 2.51 µM (inconclusive); for `COc1ccc2c(c1)c(CC(=O)O)c(C)n2C(=O)c1ccc(Cl)cc1` [INDOMETHACIN]: 10 µM (inconclusive) and 39.8 µM (inconclusive).
For the compound `O=C(CCc1nnc(CCCCc2ccccc2)o1)NCCN1CCCCC1=O`, in assay [1], the EC50 was > 260 µM (inactive).
Same read-out and setting: in the case of `COc1ccc(CCN=C(NS(=O)(=O)c2ccccc2)c2ccccc2)cc1OC` it was > 260 µM (inactive).
Regarding `CCCOc1ccc(N2C(=O)CC(N(CCc3ccc(OC)c(OC)c3)C(S)=Nc3ccccc3)C2=O)cc1` (stereo unspecified), the EC50 in assay [2] is 2.1 µM (active); in assay [3] it was > 30 µM (not active).
As for `O=C(Nc1nnc(SCc2ccc(Cl)cc2)s1)c1ccco1`, the AC50 was 3.16 µM (inconclusive) in assay [4] and 31.6 µM (inconclusive) in assay [5].
On to `COc1ccc(NC(=O)N2CCC3(CC2)CCN(C(=O)c2ccncc2)CC3)cc1`, for which the AC50 in assay [4] was 25.1 µM (inconclusive); in assay [5], 15.8 µM (inconclusive).
For `Cc1c(N(C)S(=O)(=O)c2cccc(C(=O)NC(C)C)c2)c(=O)n(-c2ccccc2)n1C`, the EC50 in assay [1] was > 260 µM (inactive).
On to `O=[N+]([O-])c1ccc(S(=O)(=O)NCCS(=O)(=O)N2CCN(c3ccccc3)CC2)cc1`, for which the EC50 in assay [2] was 0.247 µM (active); in assay [3], > 60 µM (not active).
As to `Cc1nn(CC(=O)NCc2ccccc2)c(C)c1[N+](=O)[O-]`, in assay [5], the AC50 was 22.4 µM (inconclusive).
For the compound `COc1ccc(C(=O)n2nc(C)cc2Nc2ccccc2)cc1`, the EC50 in assay [1] was 7.2 µM (active).
Turning to `COc1ccc([N+](=O)[O-])cc1N=C(S)NC(NC(=O)Cc1ccc(OC)c(OC)c1)C(Cl)(Cl)Cl` (stereo unspecified), in assay [4], the AC50 is 17.8 µM (inconclusive).
`CCN1CCN(c2oc(COc3ccc(-c4ccccc4)cc3)nc2C#N)CC1`: the EC50 in assay [2] is 2.66 µM (active); in assay [3], > 60 µM (not active).
In the case of `COc1cccc(NC(=O)CSc2nc(N)cc(N)n2)c1`, the EC50 in assay [1] is > 260 µM (inactive).
On the same count and under the same terms, the same measure for `COC(=O)C(NNc1ccccc1C)(NC(=O)c1ccc(F)cc1)C(F)(F)F` (stereo unspecified): > 260 µM (inactive).
For `COc1ccc(C(=O)N2CCC3(CC2)CCN(c2cccc(-c4ccccc4)c2)CC3)cc1`, the AC50 in assay [4] was 25.1 µM (inconclusive).
In the case of `CCCOc1ccc(NC(=O)OC2CCN(C)CC2)cc1`, the EC50 was 0.442 µM (active) in assay [2] and > 60 µM (not active) in assay [3].
For `Cc1csc(-c2cnn(-c3ccccc3)c2NC(=O)c2cccc(C(F)(F)F)c2)n1`, in assay [1], the EC50 was > 260 µM (inactive).
Still for that read-out and setting: in the case of `Cc1cnn(-c2cc(N/N=C/c3cccc(F)c3)ncn2)c1` it was > 260 µM (inactive); in that of `O=C(NNc1c(Cl)cccc1Cl)C1CCC1`, > 260 µM (inactive).
As to `N#Cc1ccc(CN2CC3(CCN(C(=O)c4ccncc4)CC3)C2)cc1`, the AC50 in assay [5] is 12.6 µM (inconclusive).
In the case of `C(=N\N1CCN(Cc2cccc3ccccc23)CC1)/c1cccnc1`, the EC50 in assay [1] was > 260 µM (inactive).
Consider `CCN(CC)C(=O)c1ccc(C)c(Br)c1`, for which, in assay [1], the EC50 was > 260 µM (inactive).
On to `Cc1cc(Cn2ccnc2)c(C)c([N+](=O)[O-])c1Cn1ccnc1`, for which the figures for the EC50 in assay [2] and in assay [3] were 2.05 µM (active) and > 60 µM (not active), respectively.
For the compound `NCCNC(=O)c1ncsc1-c1cccc(F)c1`, the AC50 in assay [5] was 31.6 µM (inconclusive).
Turning to `COC(=O)CN1C(c2cccc(Cl)c2)=Nc2ccc(Cl)cc2C1c1ccccc1` (stereo unspecified), in assay [1], the EC50 is > 260 µM (inactive).
In the case of `CC1(C)CC[C@]2(C(=O)O)CC[C@]3(C)C(=CCC4[C@@]5(C)CC[C@H](O)C(C)(C)C5CC[C@]43C)C2C1` (stereo partly specified), the EC50 in assay [6] is 2.6 µM (active).
Take `C=CCn1c(=O)c2c(nc(Br)n2Cc2ccccc2Cl)n(C)c1=O`: the AC50 in assay [4] was 15.8 µM (inconclusive).
On to `Cc1ccc2cc(C(c3nnnn3C3CCCC3)N(Cc3ccco3)Cc3cccs3)c(O)nc2c1` (stereo unspecified), for which the EC50 in assay [2] was 3.2 µM (active); in assay [3], > 60 µM (not active).
As to `Cc1cc(NC(=O)c2cccs2)n(-c2nc3ccccc3[nH]2)n1`, the EC50 is 1.95 µM (active) in assay [2] and 14.2 µM (active) in assay [3].
`COc1ccccc1N1CCN(C(CNS(=O)(=O)c2cc(F)ccc2F)c2cccnc2)CC1` (stereo unspecified): the EC50 in assay [2] is 0.367 µM (active); in assay [3] it was > 60 µM (not active).
Turning to `C[C@](N)(CCP(=O)(O)O)C(=O)O`, the concentration at half-maximal activity (AC50) in assay [4] is 39.8 µM (inconclusive).
Same read-out and setting: the same measure for `CCOC(=O)NC(NC(=O)OCC)C(=O)c1ccc(F)cc1`: 10 µM (inconclusive).
Regarding `C/C(=N\Nc1nc(N2CCCCC2)nc(N2CCOCC2)n1)c1ccccc1O`, the EC50 in assay [2] was 0.681 µM (active); in assay [3] it was 6.37 µM (active).
In the case of `CCN(CCCNC(=O)CNC(=O)c1nn(-c2ccc(OC)cc2OC)c(=O)c2ccccc12)c1cccc(C)c1`, in assay [1], the EC50 was > 260 µM (inactive).
Turning to `CN(C)S(=O)(=O)c1ccc(C(=O)Nc2nnc(-c3ccc4c(c3)CCCC4)o2)cc1`, the EC50 was 0.286 µM (active) in assay [6] and 0.264 µM (active) in assay [7].
Consider `c1ccc(C(c2ccccc2)c2noc(CN3CCC(c4ccncc4)CC3)n2)cc1`, for which the EC50 was 0.943 µM (active) in assay [2] and > 30 µM (not active) in assay [3].
For `CCOc1cc(CNc2cccc3ccccc23)cc(Br)c1OCC(=O)NC(C)(C)C` the same measures were 2.31 µM (active) and > 30 µM (not active).
With `CCOc1ccc(NC(=O)c2ccc(OC)cc2)cc1`, the AC50 in assay [4] was 20 µM (inconclusive).

These data come from ChEMBL document CHEMBL1201862, “PubChem BioAssay data set” (2004).
